{
  "source": "ChEMBL document CHEMBL4725309",
  "about": "“Potent, non-covalent reversible BTK inhibitors with 8-amino-imidazo[1,5-a]pyrazine core featuring 3-position bicyclic ring substitutes” (Bioorg Med Chem Lett, 2020)",
  "key": {"Homo sapiens [1]": {"organism": "Homo sapiens", "assay": "Selectivity index, ratio of IC50 for ERBB4 (unknown origin) to IC50 for recombinant full length BTK (unknown origin) expressed in baculovirus infected Sf9 cells"}, "[2]": {"assay": "AUC in Wistar Han rat at 2 mg/kg, iv", "assay_type": "ADME, organism-based", "set-up": "dose 2 mg/kg", "settings": "in vivo"}, "[3]": {"target": "T1, Tyrosine-protein kinase Tec (Homo sapiens, UniProt P42680)", "T1 sequence (P42680 whole entry)": "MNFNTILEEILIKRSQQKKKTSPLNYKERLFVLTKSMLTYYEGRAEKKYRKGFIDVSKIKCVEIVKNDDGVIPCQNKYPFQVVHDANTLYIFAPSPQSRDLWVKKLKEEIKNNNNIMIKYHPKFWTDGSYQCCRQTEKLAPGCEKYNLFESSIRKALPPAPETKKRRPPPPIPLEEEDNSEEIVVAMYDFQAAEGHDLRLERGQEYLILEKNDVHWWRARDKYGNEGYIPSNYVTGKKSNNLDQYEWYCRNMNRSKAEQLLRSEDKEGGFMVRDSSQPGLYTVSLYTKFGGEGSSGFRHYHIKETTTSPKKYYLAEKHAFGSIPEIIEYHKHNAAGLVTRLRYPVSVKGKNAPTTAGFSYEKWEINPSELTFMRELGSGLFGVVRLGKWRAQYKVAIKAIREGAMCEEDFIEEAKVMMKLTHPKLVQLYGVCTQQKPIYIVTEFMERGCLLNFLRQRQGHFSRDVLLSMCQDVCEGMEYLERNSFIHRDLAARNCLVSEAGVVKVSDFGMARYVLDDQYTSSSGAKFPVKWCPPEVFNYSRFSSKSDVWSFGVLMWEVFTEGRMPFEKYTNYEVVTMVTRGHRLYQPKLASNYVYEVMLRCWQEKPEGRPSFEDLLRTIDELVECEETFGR", "assay": "Inhibition of TEC (unknown origin)"}, "[4]": {"target": "T2, Cytoplasmic tyrosine-protein kinase BMX (Homo sapiens, UniProt P51813)", "T2 sequence (P51813 whole entry)": "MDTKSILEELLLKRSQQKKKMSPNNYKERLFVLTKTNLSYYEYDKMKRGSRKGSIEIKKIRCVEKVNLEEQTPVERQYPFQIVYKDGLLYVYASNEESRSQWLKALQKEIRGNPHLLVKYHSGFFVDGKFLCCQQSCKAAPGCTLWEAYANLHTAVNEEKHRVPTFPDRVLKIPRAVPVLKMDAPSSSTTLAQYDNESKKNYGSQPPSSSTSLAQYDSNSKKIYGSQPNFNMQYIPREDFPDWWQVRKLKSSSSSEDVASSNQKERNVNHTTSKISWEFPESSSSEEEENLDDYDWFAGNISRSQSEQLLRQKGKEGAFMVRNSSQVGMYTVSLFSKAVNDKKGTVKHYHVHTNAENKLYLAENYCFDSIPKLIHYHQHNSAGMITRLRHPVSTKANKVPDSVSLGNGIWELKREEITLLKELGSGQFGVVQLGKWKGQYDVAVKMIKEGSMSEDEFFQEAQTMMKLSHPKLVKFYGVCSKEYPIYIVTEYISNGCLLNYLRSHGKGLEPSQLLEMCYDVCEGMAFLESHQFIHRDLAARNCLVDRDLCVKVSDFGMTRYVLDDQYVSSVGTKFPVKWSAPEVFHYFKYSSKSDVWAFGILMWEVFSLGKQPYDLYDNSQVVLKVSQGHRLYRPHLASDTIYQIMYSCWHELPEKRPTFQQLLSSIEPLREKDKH", "assay": "Inhibition of BMX (unknown origin)"}, "[5]": {"target": "Tyrosine-protein kinase BTK (Homo sapiens, UniProt Q06187)", "sequence (Q06187 whole entry)": "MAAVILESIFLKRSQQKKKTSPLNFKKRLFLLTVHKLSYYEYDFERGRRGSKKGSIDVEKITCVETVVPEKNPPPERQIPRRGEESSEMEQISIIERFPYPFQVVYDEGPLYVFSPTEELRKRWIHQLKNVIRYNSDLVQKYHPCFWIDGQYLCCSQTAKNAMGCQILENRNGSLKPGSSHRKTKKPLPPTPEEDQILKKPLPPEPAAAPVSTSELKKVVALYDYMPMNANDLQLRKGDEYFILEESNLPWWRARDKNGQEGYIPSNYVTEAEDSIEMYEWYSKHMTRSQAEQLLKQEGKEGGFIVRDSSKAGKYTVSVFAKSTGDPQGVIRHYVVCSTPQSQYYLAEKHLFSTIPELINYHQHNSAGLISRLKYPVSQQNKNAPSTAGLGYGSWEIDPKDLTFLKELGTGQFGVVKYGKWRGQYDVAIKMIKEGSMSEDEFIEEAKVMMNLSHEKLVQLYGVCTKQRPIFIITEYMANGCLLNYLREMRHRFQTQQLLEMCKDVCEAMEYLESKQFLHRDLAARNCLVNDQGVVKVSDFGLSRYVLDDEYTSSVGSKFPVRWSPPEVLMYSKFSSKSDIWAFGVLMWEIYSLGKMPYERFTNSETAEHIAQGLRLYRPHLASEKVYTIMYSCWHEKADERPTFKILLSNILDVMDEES", "assay": "Inhibition of recombinant full length BTK (unknown origin) expressed in baculovirus infected Sf9 cells using Biotin-EQEDEPEGDYFEWLE-NH2 peptide as substrate incubated for 60 mins followed by further incubation with substrate and ATP for 120 mins by TR-FRET assay"}, "[6]": {"assay": "Half life in Wistar Han rat at 2 mg/kg, iv", "assay_type": "ADME, organism-based", "settings": "in vivo"}, "Homo sapiens [7]": {"organism": "Homo sapiens", "assay": "Selectivity index, ratio of IC50 for BMX (unknown origin) to IC50 for recombinant full length BTK (unknown origin) expressed in baculovirus infected Sf9 cells"}, "[8]": {"target": "Tyrosine-protein kinase Fgr (Homo sapiens, UniProt P09769)", "sequence (P09769 whole entry)": "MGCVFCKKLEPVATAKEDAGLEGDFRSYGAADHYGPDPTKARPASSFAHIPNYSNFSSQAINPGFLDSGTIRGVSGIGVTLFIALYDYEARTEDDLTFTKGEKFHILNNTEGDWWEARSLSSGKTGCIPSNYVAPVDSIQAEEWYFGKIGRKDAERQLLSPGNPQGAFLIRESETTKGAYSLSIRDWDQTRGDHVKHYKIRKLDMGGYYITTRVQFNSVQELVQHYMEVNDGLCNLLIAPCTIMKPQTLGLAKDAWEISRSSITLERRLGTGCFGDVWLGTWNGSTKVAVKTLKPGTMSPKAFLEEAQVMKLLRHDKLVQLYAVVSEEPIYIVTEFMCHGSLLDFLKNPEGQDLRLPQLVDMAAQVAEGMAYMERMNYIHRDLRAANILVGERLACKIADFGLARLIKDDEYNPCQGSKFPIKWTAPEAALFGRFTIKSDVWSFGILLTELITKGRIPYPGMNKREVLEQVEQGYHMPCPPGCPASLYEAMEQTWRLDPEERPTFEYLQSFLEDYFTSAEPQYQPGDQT", "assay": "Inhibition of FGR (unknown origin)"}, "[9]": {"assay": "Clearance in Wistar Han rat at 2 mg/kg, iv", "assay_type": "ADME, organism-based", "settings": "in vivo"}, "Homo sapiens [10]": {"organism": "Homo sapiens", "assay": "Selectivity index, ratio of IC50 for FGR (unknown origin) to IC50 for recombinant full length BTK (unknown origin) expressed in baculovirus infected Sf9 cells"}, "[11]": {"assay": "Clearance in Beagle dog at 1 mg/kg, iv", "assay_type": "ADME, organism-based, Canis lupus familiaris", "settings": "in vivo"}, "Rattus norvegicus": {"test_system": "Rattus norvegicus", "assay": "Antiarthritic activity in Lewis rat model of collagen-induced arthritis assessed as decrease in paw thickness at 1 to 30 mg/kg, po qd and measured for 30 days", "assay_type": "functional, organism-based", "settings": "dose mg/kg 1-30, time 30.0 day"}, "[12]": {"assay": "Cmax in Beagle dog at 2 mg/kg, po", "assay_type": "ADME, organism-based, Canis lupus familiaris", "set-up": "route oral, dose 2 mg/kg", "settings": "in vivo"}, "[13]": {"assay": "Tmax in Beagle dog at 2 mg/kg, po", "assay_type": "ADME, organism-based, Canis lupus familiaris", "settings": "in vivo"}, "[14]": {"assay": "Half life in Beagle dog at 1 mg/kg, iv", "assay_type": "ADME, organism-based, Canis lupus familiaris", "settings": "in vivo"}, "[15]": {"assay": "Oral bioavailability in Beagle dog at 2 mg/kg", "assay_type": "ADME, organism-based, Canis lupus familiaris", "settings": "in vivo"}, "[16]": {"assay": "Volume of distribution at steady state in Beagle dog at 1 mg/kg, iv", "assay_type": "ADME, organism-based, Canis lupus familiaris", "settings": "in vivo, read-out: Vdss"}, "[17]": {"assay": "AUC in Beagle dog at 1 mg/kg, iv", "assay_type": "ADME, organism-based, Canis lupus familiaris", "set-up": "dose 1 mg/kg", "settings": "in vivo"}},
  "data": [
    {"smiles": "CC1(C)OC(=O)N2C[C@H](c3nc(-c4ccc(C(=O)Nc5cc(C(F)(F)F)ccn5)cc4)c4c(N)nccn34)CC[C@H]21", "values": [
      {"measurement": "Ratio IC50", "setting": "Homo sapiens [1]", "result": 190},
      {"measurement": "AUC", "setting": "[2]", "result": 2.3, "unit": "µM·h"},
      {"measurement": "IC50", "setting": "[3]", "result": 27, "unit": "nM"},
      {"measurement": "IC50", "setting": "[4]", "result": 5.6, "unit": "nM"},
      {"measurement": "IC50", "setting": "[5]", "result": 0.12, "unit": "nM"},
      {"measurement": "half-life", "setting": "[6]", "result": 3.6, "unit": "h"},
      {"measurement": "Ratio IC50", "setting": "Homo sapiens [7]", "result": 47},
      {"measurement": "IC50", "setting": "[8]", "result": 34, "unit": "nM"},
      {"measurement": "clearance", "setting": "[9]", "result": 26, "unit": "mL/min/kg"},
      {"measurement": "Ratio IC50", "setting": "Homo sapiens [10]", "result": 283}
    ]},
    {"smiles": "Nc1nccn2c([C@@H]3CC[C@H]4COC(=O)N4C3)nc(-c3ccc(C(=O)Nc4cc(C(F)(F)F)ccn4)cc3)c12", "values": [
      {"measurement": "Ratio IC50", "setting": "Homo sapiens [1]", "result": 410},
      {"measurement": "AUC", "setting": "[2]", "result": 5.1, "unit": "µM·h"},
      {"measurement": "IC50", "setting": "[3]", "result": 92, "unit": "nM"},
      {"measurement": "IC50", "setting": "[4]", "result": 13, "unit": "nM"},
      {"measurement": "IC50", "setting": "[5]", "result": 0.083, "unit": "nM"},
      {"measurement": "half-life", "setting": "[6]", "result": 5.1, "unit": "h"},
      {"measurement": "Ratio IC50", "setting": "Homo sapiens [7]", "result": 157},
      {"measurement": "IC50", "setting": "[8]", "result": 26, "unit": "nM"},
      {"measurement": "clearance", "setting": "[9]", "result": 17, "unit": "mL/min/kg"},
      {"measurement": "Ratio IC50", "setting": "Homo sapiens [10]", "result": 313}
    ]},
    {"smiles": "Nc1nccn2c([C@@H]3CC[C@H]4CCC(=O)N4C3)nc(-c3ccc(C(=O)Nc4cc(C(F)(F)F)ccn4)cc3)c12", "values": [
      {"measurement": "clearance", "setting": "[11]", "result": 11, "unit": "mL/min/kg"},
      {"measurement": "Ratio IC50", "setting": "Homo sapiens [1]", "result": 240},
      {"measurement": "AUC", "setting": "[2]", "result": 7.8, "unit": "µM·h"},
      {"measurement": "Activity", "setting": "Rattus norvegicus", "result": "Dose-dependent effect"},
      {"measurement": "IC50", "setting": "[3]", "result": 63, "unit": "nM"},
      {"measurement": "Cmax", "setting": "[12]", "result": 1700, "unit": "nM"},
      {"measurement": "Tmax", "setting": "[13]", "result": 1, "unit": "h"},
      {"measurement": "IC50", "setting": "[4]", "result": 11, "unit": "nM"},
      {"measurement": "half-life", "setting": "[6]", "result": 2.8, "unit": "h"},
      {"measurement": "half-life", "setting": "[14]", "result": 3.6, "unit": "h"},
      {"measurement": "bioavailability", "setting": "[15]", "result": 100, "unit": "%"},
      {"measurement": "Ratio IC50", "setting": "Homo sapiens [7]", "result": 110},
      {"measurement": "Vd", "setting": "[16]", "result": 1.5, "unit": "L/kg"},
      {"measurement": "AUC", "setting": "[17]", "result": 2.8, "unit": "µM·h"},
      {"measurement": "clearance", "setting": "[9]", "result": 8, "unit": "mL/min/kg"}
    ]}
  ]
}
